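In this assay, cells in 96-well plates receive the compound at five concentrations for 48 hours. Endpoints are linearly interpolated between the surrounding concentrations. GI50 is the concentration that inhibits growth by half. Definition used: TGI = concentration required for complete inhibition of growth.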
How the values were obtained:
Assay in all cases: NCI-60 cell line screen, 48 h
[1] = test system: OVCAR-4 ovarian
[2] = test system: A549 NSCLC
[3] = test system: NCI/ADR-RES ovarian
[4] = test system: HCT-15 colon
[5] = test system: BT-549 breast
[6] = test system: NCI-H226 lung
[7] = test system: CCRF-CEM leukemia
[8] = test system: SK-MEL-2 melanoma
[9] = test system: SK-MEL-5 melanoma
[10] = test system: PC-3 prostate
[11] = test system: NCI-H23 lung
[12] = test system: SF-268 CNS
[13] = test system: UACC-257 melanoma
[14] = test system: HOP-92 NSCLC
[15] = test system: SW-620 colon
[16] = test system: DU-145 prostate
[17] = test system: SF-539 CNS
[18] = test system: MDA-MB-231 breast
[19] = test system: RPMI-8226 leukemia
[20] = test system: TK-10 renal
[21] = test system: SNB-19 CNS
[22] = test system: HT29 colon
[23] = test system: HCC-2998 colon
[24] = test system: 786-0 renal
[25] = test system: U251 CNS
[26] = test system: COLO 205 colon
[27] = test system: LOX IMVI melanoma
[28] = test system: IGROV1 ovarian
[29] = test system: MDA-MB-435
[30] = test system: SR leukemia
[31] = test system: NCI-H460 lung
[32] = test system: M14 melanoma
[33] = test system: HCT-116 colon
[34] = test system: HS 578T breast
[35] = test system: SF-295 CNS
[36] = test system: SNB-75 CNS
[37] = test system: NCI-H522 lung
[38] = test system: HOP-62 NSCLC
[39] = test system: K-562 leukemia
[40] = test system: MOLT-4 leukemia
[41] = test system: CAKI-1 renal
[42] = test system: OVCAR-5 ovarian
[43] = test system: KM12 colon
[44] = test system: OVCAR-3 ovarian
[45] = test system: SN12C renal
[46] = test system: MALME-3M melanoma
[47] = test system: A498 renal
[48] = test system: RXF 393 renal
[49] = test system: EKVX NSCLC
[50] = test system: OVCAR-8 ovarian
[51] = test system: UACC-62 melanoma
[52] = test system: SK-MEL-28 melanoma
[53] = test system: HL-60(TB) leukemia
[54] = test system: SK-OV-3 ovarian
[55] = test system: ACHN renal
[56] = test system: MCF7 breast
[57] = test system: UO-31 renal
[58] = test system: T-47D breast

C=C(C)C(=O)O[C@H]1C[C@@]2(C)OC(=CC2=O)/C(C)=C\[C@H]2OC(=O)C(=C)[C@H]12
GI50 [1]: 1.38 µM | TGI [1]: 6.36 µM | GI50 [2]: 8.47 µM | TGI [2]: > 33.2 µM | GI50 [3]: 1.11 µM | TGI [3]: > 33.2 µM | GI50 [4]: 0.795 µM | TGI [4]: 3.29 µM | GI50 [5]: 0.927 µM | TGI [5]: 3.03 µM | GI50 [6]: 0.762 µM | TGI [6]: 1.99 µM | GI50 [7]: 0.93 µM | TGI [7]: 4.25 µM | GI50 [8]: 1.4 µM | TGI [8]: 6.02 µM | GI50 [9]: 3.67 µM | TGI [9]: 13.6 µM | GI50 [10]: 2.01 µM | TGI [10]: 7.63 µM | GI50 [11]: 1.54 µM | TGI [11]: 8.32 µM | GI50 [12]: 1.99 µM | TGI [12]: > 16.7 µM | GI50 [13]: 0.872 µM | TGI [13]: 2.28 µM | GI50 [14]: 1.04 µM | TGI [14]: 2.99 µM | GI50 [15]: 0.705 µM | TGI [15]: 1.72 µM | GI50 [16]: 0.968 µM | TGI [16]: 4.18 µM | GI50 [17]: 1.07 µM | TGI [17]: 4.78 µM | GI50 [18]: 1.18 µM | TGI [18]: 4.64 µM | GI50 [19]: 1.06 µM | TGI [19]: 3.4 µM | GI50 [20]: 0.859 µM | TGI [20]: 2.06 µM | GI50 [21]: 11.1 µM | TGI [21]: > 33.2 µM | GI50 [22]: 0.957 µM | TGI [22]: 3.29 µM | GI50 [23]: 3.3 µM | TGI [23]: 8.15 µM | GI50 [24]: 0.66 µM | TGI [24]: 1.5 µM | GI50 [25]: 1.75 µM | TGI [25]: 7.16 µM | GI50 [26]: 0.554 µM | TGI [26]: 1.26 µM | GI50 [27]: 0.601 µM | TGI [27]: 1.34 µM | GI50 [28]: 1.95 µM | TGI [28]: 6.23 µM | GI50 [29]: 0.717 µM | TGI [29]: 1.78 µM | GI50 [30]: 0.734 µM | TGI [30]: 6.3 µM | GI50 [31]: 5.01 µM | TGI [31]: > 33.2 µM | GI50 [32]: 0.79 µM | TGI [32]: 2.37 µM | GI50 [33]: 0.53 µM | TGI [33]: 1.21 µM | GI50 [34]: 8.21 µM | TGI [34]: > 33.2 µM | GI50 [35]: 5.82 µM | TGI [35]: 18.5 µM | GI50 [36]: 1.15 µM | TGI [36]: 16.4 µM | GI50 [37]: 0.461 µM | TGI [37]: 1.04 µM | GI50 [38]: 6.5 µM | TGI [38]: 24.6 µM | GI50 [39]: 1.15 µM | TGI [39]: > 33.2 µM | GI50 [40]: 1.01 µM | TGI [40]: 3.52 µM | GI50 [41]: 0.928 µM | TGI [41]: 3.12 µM | GI50 [42]: 1.03 µM | TGI [42]: 3.21 µM | GI50 [43]: 3.84 µM | TGI [43]: 8.87 µM | GI50 [44]: 0.863 µM | TGI [44]: 2.92 µM | GI50 [45]: 1.3 µM | TGI [45]: 11 µM | GI50 [46]: 0.666 µM | TGI [46]: 1.5 µM | GI50 [47]: 7.42 µM | TGI [47]: 16.5 µM | GI50 [48]: 0.601 µM | TGI [48]: 1.19 µM | GI50 [49]: 1.31 µM | TGI [49]: 12.2 µM | GI50 [50]: 1.23 µM | TGI [50]: > 33.2 µM | GI50 [51]: 0.675 µM | TGI [51]: 1.8 µM | GI50 [52]: 0.788 µM | TGI [52]: 1.96 µM | GI50 [53]: 0.913 µM | TGI [53]: 2.45 µM | GI50 [54]: 10.7 µM | TGI [54]: > 33.2 µM | GI50 [55]: 0.625 µM | TGI [55]: 1.6 µM | GI50 [56]: 1 µM | TGI [56]: 5.33 µM | GI50 [57]: 0.56 µM | TGI [57]: 1.24 µM | GI50 [58]: 0.661 µM | TGI [58]: 3.8 µM
